According to US20200038399A1, “FORMULATIONS, METHODS, KIT, AND DOSAGE FORMS FOR TREATING BACTERIAL INFECTION” (Motif BioSciences Inc., priority 2016, published 2020):
Where two headings read alike, the source gives them in different places.

Experiments:
[1] = tested on: S. pneumoniae 1/1; experiment: MIC determination; format: cell-based, Streptococcus pneumoniae; conditions: Streptococcus pneumoniae, read-out: Minimum inhibitory concentrations (MIC)
Experimental: (§1) Minimum inhibitory concentration (MIC) determination.
(§2) In order to choose the appropriate concentrations to be tested in the checkerboard experiments, minimum inhibitory concentrations (MICs) were determined first. […] Table 6) in microtiter plates. Stock solutions (10 mg/ml) of reference antibiotics were prepared in DMSO (except for tobramycin, gentamicin, lomefloxacin, tetracycline) and stored at 4° C. The bacteria were grown in Mueller-Hinton Broth (BBL Mueller-Hinton Broth II, cation adjusted). S. pneumoniae was grown in Mueller-Hinton Broth supplemented with 5% (v/v) lysed sheep blood. For the growth of H. influenzae HTM (Haemophilus test medium) was used containing Mueller-Hinton broth, yeast extract ([…], Difco) and supplemented with NAD and hematin (HTM Supplement, Oxoid SR0158E). M. catarrhalis was grown in Brain Heart Infusion medium (Oxoid). The bacteria were incubated for 18 hours at 37° C. in ambient air except for S. pneumoniae, H. influenzae and M. catarrhalis, which were incubated in the presence of 5% CO2. The MIC was determined as the lowest concentration of an individual drug that lead to no visible growth.

[2] = tested on: S. aureus 101; experiment: MIC determination; format: cell-based, Staphylococcus aureus
Experimental: as §1, §2

[3] = tested on: Moraxella catarrhalis RA 21; experiment: checkerboard synergy assay with iclaprim; format: cell-based; conditions: antibiotic in combination with iclaprim; M. catarrhalis RA 21
Experimental: (§3) The synergistic potential of iclaprim against Gram-positive and Gram-negative bacteria was determined using the checkerboard assay as described in Eliopoulos GM and Moellering, Jr. RC (1991), Antimicrobial combinations, pp. 432-492, in V. Lorian (ed.), Antibiotics in laboratory medicine, 3rd Ed., The Williams & Wilkins Co., Baltimore, the entire disclosure of which is herein incorporated by reference, allowing multiple test concentrations of iclaprim to be assayed in the presence of various concentrations of the other antibiotic in microtiter plates. The same growth media and conditions were used as described in 3.2 below.
(§4) Two different dilutions were used for iclaprim depending on the MIC determined for the bacterium. […] Iclaprim and the other antibiotic being tested were also dispensed alone in the last row and in the last column, respectively, as controls.
(§5) The Fractional Inhibitory Concentrations (FIC) for each added agent were calculated and used to determine the sum of FIC (ΣFIC) indicative of the synergistic potential of a given combination as described in Veyssier P. (1999), Inhibiteurs de la dihydrofolate reductase, nitrohétérocycles (furanes) et 8-hydroxyquinoleines, pp. 995-1027, in A. Bryskier (ed.), Antibiotiques agents antibatériens et antifongiques, 1st Ed., Ellipses Edition Marketing SA, Paris, the entire disclosure of which is herein incorporated by reference. Synergy was defined whereby the ΣFIC was <0.5, indifference (no synergy nor antagonism) whereby ΣFIC was ≥0.5 but ≤4, and antagonism whereby ΣFIC was >4. Additivity as a special form of indifference was defined whereby the ΣFIC was ≥0.5 but <1, for example as described in Stevens, D L et al. (1998), In vitro antimicrobial effects of various combinations of penicillin and clindamycin against four strains of Streptococcus pyogenes, J. Antimicrob. Chemother. 42: 1266-1268, the entire disclosure of which is herein incorporated by reference.

[4] = tested on: Streptococcus pneumoniae ATCC 49619; experiment: checkerboard synergy assay with iclaprim; format: cell-based; conditions: antibiotic in combination with iclaprim; S. pneumoniae 49619
Experimental: as §3, §4, §5

[5] = tested on: Klebsiella pneumoniae ATCC 33495; experiment: checkerboard synergy assay with iclaprim; format: cell-based; conditions: antibiotic in combination with iclaprim; K. pneumoniae 33495
Experimental: as §3, §4, §5

[6] = tested on: Staphylococcus aureus ATCC 25923; experiment: checkerboard synergy assay with iclaprim; format: cell-based; conditions: antibiotic in combination with iclaprim; S. aureus 25923
Experimental: as §3, §4, §5

[7] = tested on: Haemophilus influenzae ATCC 49766; experiment: checkerboard synergy assay with iclaprim; format: cell-based; conditions: antibiotic in combination with iclaprim; H. influenzae 49766
Experimental: as §3, §4, §5

[8] = tested on: S. pneumoniae 1/1; experiment: checkerboard synergy assay with iclaprim; format: cell-based, Streptococcus pneumoniae; conditions: antibiotic in combination with iclaprim
Experimental: as §3, §4, §5

[9] = tested on: Moraxella catarrhalis RA 21; experiment: MIC determination; format: cell-based; conditions: Moraxella catarrhalis, read-out: Minimum inhibitory concentrations (MIC)
Experimental: as §1, §2

[10] = tested on: Streptococcus pneumoniae ATCC 49619; experiment: MIC determination; format: cell-based; conditions: Streptococcus pneumoniae, read-out: Minimum inhibitory concentrations (MIC)
Experimental: as §1, §2

[11] = tested on: Klebsiella pneumoniae ATCC 33495; experiment: MIC determination; format: cell-based; conditions: Klebsiella pneumoniae, read-out: Minimum inhibitory concentrations (MIC)
Experimental: as §1, §2

[12] = tested on: Staphylococcus aureus ATCC 25923; experiment: MIC determination; format: cell-based; conditions: Staphylococcus aureus, read-out: Minimum inhibitory concentrations (MIC)
Experimental: as §1, §2

[13] = tested on: Haemophilus influenzae ATCC 49766; experiment: MIC determination; format: cell-based; conditions: Haemophilus influenzae, read-out: Minimum inhibitory concentrations (MIC)
Experimental: as §1, §2

[14] = tested on: S. aureus 101; experiment: checkerboard synergy assay with iclaprim; format: cell-based, Staphylococcus aureus; conditions: antibiotic in combination with iclaprim
Experimental: as §3, §4, §5

[15] = S. pneumoniae 1/1, 18 hours at 37° C., 5% CO2
[16] = Staphylococcus aureus, 101, 18 h; read-out: Minimum inhibitory concentrations (MIC)
[17] = RA21, M. catarrhalis RA 21, 18 hours at 37° C., 5% CO2
[18] = ATCC49619, S. pneumoniae 49619, 18 hours at 37° C., 5% CO2
[19] = ATCC33495, K. pneumonia 33495, 18 hours at 37° C.
[20] = ATCC25923, S. aureus 25923, 18 hours at 37° C.
[21] = ATCC49766, H. Influenza 49766, 18 hours at 37° C., 5% CO2

CN[C@H](CC(C)C)C(=O)N[C@H]1C(=O)N[C@@H](CC(N)=O)C(=O)N[C@H]2C(=O)N[C@H]3C(=O)N[C@H](C(=O)N[C@H](C(=O)O)c4cc(O)cc(O)c4-c4cc3ccc4O)[C@H](O)c3ccc(c(Cl)c3)Oc3cc2cc(c3O[C@@H]2O[C@H](CO)[C@@H](O)[C@H](O)[C@H]2O[C@H]2C[C@](C)(N)[C@H](O)[C@H](C)O2)Oc2ccc(cc2Cl)[C@H]1O [Vancomycin]
MIC ([1]; 1/1, 18 h): 0.5 µg/mL
MIC ([2]; Staphylococcus aureus, 101, 18 h, read-out: Minimum inhibitory concentrations (MIC)): 2 µg/mL
Con (Conclusion) [3]: Ad (Additivity (Ad))
Σ FIC [3]: 0.75-1.13
Σ FIC [4]: 1.00-1.25
Con (Conclusion) [5]: Ind (Indifference (Ind))
Σ FIC [5]: 1.01-1.50
Σ FIC [6]: 1.03-1.50
Con (Conclusion) [7]: Ind (Indifference (Ind))
Σ FIC [7]: 1.00-1.25
Σ FIC [8]: 0.56-1.03
MIC ([9]; RA21, 18 h): > 128 µg/mL
MIC ([10]; ATCC49619, 18 h): 0.5 µg/mL
MIC ([11]; ATCC33495, 18 h): > 128 µg/mL
MIC ([12]; ATCC25923, 18 h): 2 µg/mL
MIC ([13]; ATCC49766, 18 h): 128 µg/mL
Σ FIC [14]: 0.75-1.25

CC[C@H]1OC(=O)[C@H](C)[C@@H](O[C@H]2C[C@@](C)(OC)[C@@H](O)[C@H](C)O2)[C@H](C)[C@@H](O[C@@H]2O[C@H](C)C[C@H](N(C)C)[C@H]2O)[C@](C)(O)C[C@@H](C)/C(=N\OCOCCOC)[C@H](C)[C@@H](O)[C@]1(C)O [Roxithromycin]
MIC [1, 15]: 0.5 µg/mL
MIC [2, 16]: > 128 µg/mL
Con (Conclusion) [3]: Ind (Indifference (Ind))
Σ FIC [3]: 1.03-1.50
Σ FIC [4]: 1.02-1.50
Con (Conclusion) [5]: Ind (Indifference (Ind))
Σ FIC [5]: 1.01-1.50
Σ FIC [6]: 1.06-1.50
Con (Conclusion) [7]: Ind (Indifference (Ind))
Σ FIC [7]: 1.03-1.50
Σ FIC [8]: 0.75-1.13
MIC [9, 17]: 0.25 µg/mL
MIC [10, 18]: 0.5 µg/mL
MIC [11, 19]: > 128 µg/mL
MIC [12, 20]: 1 µg/mL
MIC [13, 21]: 16 µg/mL
Σ FIC [14]: 1.01-1.80

C[C@@H]1O[C@@H]1P(=O)(O)O [Fosfomycin]
MIC [1, 15]: 32 µg/mL
MIC [2, 16]: 64 µg/mL
Con (Conclusion) [3]: Ind (Indifference (Ind))
Σ FIC [3]: 1.02-1.50
Σ FIC [4]: 1.06-1.50
Con (Conclusion) [5]: Ind (Indifference (Ind))
Σ FIC [5]: 1.01-1.50
Σ FIC [6]: 1.13-1.50
Con (Conclusion) [7]: Ad (Additivity (Ad))
Σ FIC [7]: 0.74-1.12
Σ FIC [8]: 1.00-1.06
MIC [9, 17]: 128 µg/mL
MIC [10, 18]: 32 µg/mL
MIC [11, 19]: > 128 µg/mL
MIC [12, 20]: 8 µg/mL
MIC [13, 21]: 0.062 µg/mL
Σ FIC [14]: 1.03-1.50

CCC[C@@H]1C[C@@H](C(=O)N[C@@H]([C@H]2O[C@H](SC)[C@H](O)[C@@H](O)[C@H]2O)[C@H](C)Cl)N(C)C1 [Clindamycin]
MIC [1, 15]: 0.125 µg/mL
MIC [2, 16]: 0.25 µg/mL
Con (Conclusion) [3]: Ind (Indifference (Ind))
Σ FIC [3]: 1.00-1.25
Σ FIC [4]: 1.00-1.25
Con (Conclusion) [5]: Ind (Indifference (Ind))
Σ FIC [5]: 1.01-1.50
Σ FIC [6]: 2.02-2.48
Con (Conclusion) [7]: Ind (Indifference (Ind))
Σ FIC [7]: 1.13-1.50
Σ FIC [8]: 0.63-1.06
MIC [9, 17]: 4 µg/mL
MIC [10, 18]: 0.125 µg/mL
MIC [11, 19]: > 128 µg/mL
MIC [12, 20]: 0.25 µg/mL
MIC [13, 21]: 8 µg/mL
Σ FIC [14]: 2.03-2.50

CO[C@H]1/C=C/O[C@@]2(C)Oc3c(C)c(O)c4c(O)c(c(/C=N/N5CCN(C)CC5)c(O)c4c3C2=O)NC(=O)/C(C)=C\C=C\[C@H](C)[C@H](O)[C@@H](C)[C@@H](O)[C@@H](C)[C@H](OC(C)=O)[C@@H]1C [Rifampicin]
MIC [1, 15]: 0.063 µg/mL
MIC [2, 16]: 0.031 µg/mL
Con (Conclusion) [3]: Ad (Additivity (Ad))
Σ FIC [3]: 0.75-1.12
Σ FIC [4]: 0.75-0.76
Con (Conclusion) [5]: Ind (Indifference (Ind))
Σ FIC [5]: 1.01-1.50
Con (Conclusion) [7]: Ind (Indifference (Ind))
Σ FIC [7]: 1.12-1.50
Σ FIC [8]: 0.56-1.12
MIC [9, 17]: 0.063 µg/mL
MIC [10, 18]: 0.031 µg/mL
MIC [11, 19]: > 128 µg/mL
MIC [12, 20]: 0.031 µg/mL
MIC [13, 21]: 0.063 µg/mL

CO/N=C(\C(=O)N[C@@H]1C(=O)N2C(C(=O)O)=C(COC(C)=O)CS[C@H]12)c1csc(N)n1 [Cefotaxime]
MIC [1, 15]: 8 µg/mL
MIC [2, 16]: 32 µg/mL
Con (Conclusion) [3]: Ad (Additivity (Ad))
Σ FIC [3]: 0.56-1.03
Con (Conclusion) [5]: Ind (Indifference (Ind))
Σ FIC [5]: 1.13-1.50
Σ FIC [6]: 1.03-1.50
Con (Conclusion) [7]: Ad (Additivity (Ad))
Σ FIC [8]: 0.63-1.06
MIC [9, 17]: 4 µg/mL
MIC [10, 18]: 0.25 µg/mL
MIC [11, 19]: 0.5 µg/mL
MIC [12, 20]: 4 µg/mL
MIC [13, 21]: 0.063 µg/mL
Σ FIC [14]: 1.06-1.50

CC1(C)S[C@@H]2[C@H](NC(=O)[C@H](N)c3ccccc3)C(=O)N2[C@H]1C(=O)O [Ampicillin]
MIC [1, 15]: 16 µg/mL
MIC [2, 16]: > 128 µg/mL
Con (Conclusion) [3]: Ind (Indifference (Ind))
Con (Conclusion) [5]: Ad (Additivity (Ad))
Σ FIC [6]: 1.00-1.00
Con (Conclusion) [7]: Ind (Indifference (Ind))
Σ FIC [7]: 1.13-1.50
MIC [9, 17]: 16 µg/mL
MIC [10, 18]: 0.5 µg/mL
MIC [11, 19]: > 128 µg/mL
MIC [12, 20]: 0.5 µg/mL
MIC [13, 21]: 1 µg/mL

O=C(N[C@H](CO)[C@H](O)c1ccc([N+](=O)[O-])cc1)C(Cl)Cl [Chloramphenicol]
MIC [1, 15]: 16 µg/mL
MIC [2, 16]: 64 µg/mL
Con (Conclusion) [3]: Ind (Indifference (Ind))
Σ FIC [3]: 1.25-1.50
Σ FIC [4]: 0.75-1.25
Con (Conclusion) [5]: Ind (Indifference (Ind))
Σ FIC [5]: 1.01-1.50
Σ FIC [6]: 1.13-2.50
Con (Conclusion) [7]: Ind (Indifference (Ind))
Σ FIC [7]: 1.06-1.50
MIC [9, 17]: 0.5 µg/mL
MIC [10, 18]: 4 µg/mL
MIC [11, 19]: > 128 µg/mL
MIC [12, 20]: 8 µg/mL
MIC [13, 21]: 0.5 µg/mL
Σ FIC [14]: 0.63-1.13
